# “And” between values parts separate entries of the source, which are not always exact repeats. Identical values can stand only once.
# Tests used:
# Format in all cases: in vivo, Arabidopsis thaliana
# [1] = test system: genes regulated by Pi starvation; test: Global transcriptomic analysis (CATMA) of roots
# Description: Plant RNA was extracted with the RNeasy kit (QIAGEN, France). For transcriptome data, RNA were analysed by the CATMA technology (Complete Arabidopsis Transcriptome Microarray). For qPCR, poly(dT) cDNA were prepared from 500 ng total RNA with Superscript III reverse transcriptase (Invitrogen, France) and analysed on a LightCycler 480 apparatus (Roche Diagnostics, France) with the SYBR Green I Master kit (Roche Diagnostics, France) according to the manufacturer's instructions. Targets were quantified with specific primer pairs designed with Primer3 website (http://frodo.wi.mit.edu/primer3/) (see Table II below). Biological triplicates were performed for all experiments. Expression levels were normalized using At2g16600, At3g04120, At1g35160 and At1g32050 genes.
# To investigate on a wider scale the putative Phosphatin1 effect, a transcriptional analysis of the global genome was performed using the CATMA technology (http://www.catma.org/, URGV, France). It was compared transcript expression in roots of 14-days-old plantlets, grown in −Pi, −Pi+PTN1 or +Pi.
# Table III: Comparison of PTN1 treatment and phosphate supply on global transcriptomic analysis. For this analysis, 14-days-old WT root samples of plants grown on −Pi, −Pi+PTN1 (40 μM) and +Pi were used. Data are expressed as ratio values between +Pi and −Pi or −Pi+PTN1 and −Pi respectively.
# [2] = Total phosphorus content by ICP; details: FIG. 3 (C)
# Description: For the quantification of ions content, 50 mg of dry weight of each sample were mineralized in 14% HNO3 using a MarsX microwave system (CEM) for the determination of macro- and microelements by inductively coupled plasma optical emission spectrometry (ICP OES Vista MPX, Varian). Biological triplicates were performed for all experiments.
# [3] = test system: phospholipids / glycolipids; test: Lipid composition of aerial part
# Description: Lipids and anthocyanins were analyzed as previously described by Jouhet (2003) and Ticconi (2001).
# wild-type (WT) seedlings = test: Primary root growth of wild-type seedlings
# Description: In the Pi deficient medium, NaCl (0.5 mM) was used to replace the equivalent amount of sodium provided by NaH2PO4. For controls of the effects of the compounds, 1% of DMSO (Dimethyl sulfoxid, SIGMA, 472301), solvent for the tested compounds, was added. After 2 days at 4° C., the plates were placed in a vertical position and plants were grown in a culture chamber under a 16 h light/8 h dark regime (24/21° C., 150 μE m^−2s^−1). For 4 weeks culture, large plates (24×24 cm) were placed in a horizontal position. Root architecture and aerial part area were quantified using program ImageJ.
# starch accumulation = test: Starch staining with lugol; details: FIG. 10 (D)
# Description: Starch staining was performed according to Zakhleniuk et al. (2001). Aerial part of plants was placed 6 h in EtOH 90% before to be iodine stained for 30 min in lugol (lugol solution; Sigma, France) and washed several times in water.
# [4] = 14-days-old roots, −Pi+PTN1 40 μM vs −Pi
# [5] = gene classes of Thibaud et al. (2010)
# [6] = −Pi medium containing PTN1, FIG. 5 (B)
structure (smiles),measurement,setting,value
O=c1c(Sc2ccc(Cl)cc2)c(Sc2ccc(Cl)cc2)c1=O [PTN1],genes de-regulated in an opposite way compared with +Pi treatment,"[1]; 40 μM, 14-days-old roots",around 4%
same,number of the 279 genes induced +Pi/−Pi also induced by PTN1,"[1]; 40 μM, 14-days-old roots",115 genes
same,number of the 279 genes induced +Pi/−Pi repressed by PTN1,"[1]; 40 μM, 14-days-old roots",11 genes
same,number of the 783 genes repressed +Pi/−Pi also repressed by PTN1,"[1]; 40 μM, 14-days-old roots",316 genes
same,number of the 783 genes repressed +Pi/−Pi induced by PTN1,"[1]; 40 μM, 14-days-old roots",30 genes
same,percentage of the 279 genes induced +Pi/−Pi also induced by PTN1,"[1]; 40 μM, 14-days-old roots",41% and 41.2%
same,percentage of the 279 genes induced +Pi/−Pi repressed by PTN1,"[1]; 40 μM, 14-days-old roots",3.9%
same,percentage of the 783 genes repressed +Pi/−Pi also repressed by PTN1,"[1]; 40 μM, 14-days-old roots",40% and 40.3%
same,percentage of the 783 genes repressed +Pi/−Pi induced by PTN1,"[1]; 40 μM, 14-days-old roots",3.8%
same,number of genes induced vs −Pi,[1]; [4],1001 genes
same,number of genes repressed vs −Pi,[1]; [4],1666 genes
same,number of genes modulated vs −Pi,"[1]; 14-days-old roots, −Pi+PTN1 40 μM vs −Pi, more than two fold change, Bonferroni <0.05",2667 genes
same,local genes repressed by Pi also repressed by PTN1,[1]; [5],45%
same,systemic genes induced by Pi also regulated by PTN1 in the same direction,[1]; [5],55%
same,systemic genes repressed by Pi also regulated by PTN1 in the same direction,[1]; [5],65%
same,expression of PHT1;5 and PHT1;8,[1]; transcriptomic analysis,down regulation
same,expression of lipid conversion genes including PLDζ2 and MGD3,[1]; transcriptomic analysis,down regulated
same,"phosphorous amount vs −Pi control, leaves",[2],+40%
same,"phosphorous amount vs −Pi control, shoot",[2],+90%
same,reduction of DGDG content,"[3]; Pi-starved plants, aerial part, 10-day-old, FIG. 5 (C)",27%
same,glycolipids share in ratio of phospholipids onto glycolipids,[3]; [6],75%
same,phospholipids share in ratio of phospholipids onto glycolipids,[3]; [6],25%
same,PC and PE content,"[3]; −Pi seedlings, FIG. 5 (C)",partially reverted the effect of −Pi
same,primary root growth at various external Pi concentrations (15-250 uM),"wild-type (WT) seedlings; 10 uM, 5 days on Pi rich medium then 24 hours on tested conditions, FIG. 7 (D)",improved root growth until 50/75 μM of Pi
same,primary root growth on −Pi,"wild-type (WT) seedlings; WT, 7-day-old plantlets, FIG. 7 (A)",promote the primary root growth in a dose dependent manner
same,concentration of maximum effect on primary root growth and PHT1;4 inhibition,wild-type (WT) seedlings; −Pi,40 µM
same,starch accumulation,starch accumulation,severely attenuated

# — patent US9801373B2, “Compounds for alleviating phosphate starvation symptoms in plants” (Commissariat a l'Energie Atomique et aux Energies …, priority 2012, dated 2017)
